In patent US20250179106A1, “Metal Bis(Imino) Aryl Compounds and Methods Thereof” (EXXONMOBIL CHEMICAL PATENTS INC., priority 2022, published 2025):

Assay: Solubility of catalysts in alkane solvent
Type: physicochemical
Details: ambient temperature (20-25° C.)
Method: General considerations: Solubility studies for all catalysts were performed using material as synthesized, unless otherwise noted. Solvents used were sparged with nitrogen (30-60 minutes) and dried over 3 Å mole sieves. Unless stated otherwise, all measurements were performed at ambient temperature (20-25° C.).
A measured mass of solvent was added to a known amount of catalyst. After stirring for at least 30 minutes or more, the resulting mixture was filtered. The filtrate was concentrated is to dryness, and the remaining catalyst was weighed to provide the mass of dissolved catalyst. Solubility was calculated using the formula below.
Alternatively, for mixtures prepared at a low concentration (<0.25 wt %) which remained heterogeneous (visible solids or murky), the value may be reported as being “less than” the calculated value.
Formula used to calculate solubility is listed below.

Structure (SMILES) | Solubility (wt %) (solvent isohexane) | Solubility (wt %) (solvent pentane)
CCCC[Si](CCCC)(CCCC)CC(=Nc1c(C)cccc1C)c1cccc(C(C[Si](CCCC)(CCCC)CCCC)=Nc2c(C)cccc2C)n1.[Cl][Fe][Cl] [Catalyst 3] | 4.2 | –
CCCC[Si](CCCC)(CCCC)CC(=Nc1c(C)cc(Cl)cc1C)c1cccc(C(C[Si](CCCC)(CCCC)CCCC)=Nc2c(C)cc(Cl)cc2C)n1.[Cl][Fe][Cl] [Catalyst 7] | – | 2.6
CCCC[Si](CCCC)(CCCC)CC(=Nc1c(C)ccc(Cl)c1C)c1cccc(C(C[Si](CCCC)(CCCC)CCCC)=Nc2c(C)ccc(Cl)c2C)n1.[Cl][Fe][Cl] [Catalyst 8] | – | 1.7
CCCC[Si](CCCC)(CCCC)CC(=Nc1c(C)cc(C)cc1Cl)c1cccc(C(C[Si](CCCC)(CCCC)CCCC)=Nc2c(C)cc(C)cc2Cl)n1.[Cl][Fe][Cl] [Catalyst 9] | – | 0.15
